According to patent US20240226165A1, “Methods of Producing Improved Immune Cell Populations” (Prescient Therapeutics Ltd, priority 2021, published 2024):
Entries after “also recorded” stand apart in the source; their conditions may differ.

Key:
MC-38-hHer2 = MC-38-hHer2 colon cancer model in hHer2 transgenic mice; assay type: in vivo, mouse
Experimental: C57BL/6J wildtype (WT) and human Her2 (hHer2) transgenic mouse lines were all in bred and maintained at the Peter MacCallum Cancer Centre (Victoria, Australia). Mice between the age of 6 and 16 weeks were gender-matched and randomised into different treatment groups.
Her2 transgenic recipients were either injected subcutaneously with 2.5×10^5 of MC38-hHer2 or 2.5×10^5 of E0771-hHer2 into the mammary fat pad with. Once the tumours become palpable and they were measured using a manual caliper and tumour area calculated in millimetres squared (mm^2, length×width). On day 6-7 post-tumour inoculation, tumour-bearing Her2+ mice were ranodmised to have an average tumour size of 20 mm^2, 20×10^6 of CAR-transduced T-cells were adoptively transferred into these recipients. 50 000 U of IL-2 was administered via intraperitoneal injection 5 times over the next 2 days. Tumour sizes were measured and monitored every 2-3 days until their tumour size exceed 120 mm^2 or until the tumour-bearing mice reached a designated experimental time point.

human CAR-T-cells [1] = test: Mass spectrometry of cellular proteome; assay type: cell-based; conditions: treatment of PBMCs
Excerpt: At each time point, cells were collected and washed three times with cold DPBS before cell lysis for global proteomic analysis.
Cells were homogenised/solubilised containing protease and phosphatase inhibitor (HALT) by tip-probe sonication, quantified, normalized and reduced (dithiothreitol, DTT), alkylated (iodoacetamide), before Sera-Mag Speed Bead-based protein digestion with LysC (enzyme:substrate 1:100, Wako Pure Chemical Industries) trypsin (enzyme:substrate 1:50). […] Peptides desalted (SDB-RPS Stage-Tips), and analysed for global cellular proteome.
Spectra acquired in data dependent acquisition on an Orbitrap Q-Exactive HF-X mass spectrometer coupled to an Easy-nLC 1200 (Thermo Fisher Scientific) ultra-high pressure liquid chromatography (UHPLC) pump. […] The most intense MS1 ions were selected for MS2 analysis, fragmented by higher-energy collisional dissociation with normalized collision energy of 33. Precursors were filtered according to charge state≥2, AGC set at 1e5 for MS/MS, with monoisotopic peak used.
Mass spectra were pre-processed and processed using MaxQuant (1.6.14). […]
For further data analysis, the normalized intensities were converted into log 2 ratios of the intensities over the median intensity measured for each protein across each sample group, with statistical analyses performed using Student's T-test or ANOVA (p-value<0.05 was considered significant). […]

[2] = Immune subsets in spleen and tumour, MC-38-hHer2 model; assay type: in vivo, mouse; conditions: TCN-P as adjuvant in the presence of CAR-T-cells
Excerpt: Blood of mice was collected directly into EDTA-containing tube via submandibular bleeding at day 8-9 post-treatment. At the experimental endpoint, various organs including tumour, draining lymph node (dLN) and spleen were collected immediately after euthanasia. Single cell suspension from the dLN and spleen were achieved by processing these organs through a 70 μm filter. For splenocytes, red blood cells were lysed with ACK lysis buffer. Solid tumours were manually sliced and digested with DMEM containing 1 mg mL^−1 type IV collagenase and 0.02 mg mL^−1 DNAse for 30 mins at 37° C. in a rocking incubation at 120 r.p.m. Digestion was neutralised with DMEM and processed through a 70 μm filter and resuspended in either FACS buffer or complete RPMI media. […]
Cells were blocked for 15 mins at room temperature with Fc receptor block (clone 2.4G2 of the hybridoma supernatant diluted 1:50 with FACS buffer). […] The number of target T-cell population was calculated by using: the number of input beads in the sample/bead events×events of targeted population.

murine CAR-T-cells = test: Flow cytometry phenotyping of murine CAR-T-cells after manufacturing; assay type: cell-based, mouse
Excerpt: (§1) Mouse splenocytes were activated using CD3/CD28 antibodies and cultured in the presence of recombinant IL-2 and IL-7 for 24 hrs prior to transduction with CAR-T vectors.
(§2) Cells were stained using fluorochrome labelled antibodies against CD4, CD8, CD44, CD62L to phenotype the murine CAR-T-cells following manufacturing. Human CAR-T-cells were phenotyped using fluorochrome-conjugated antibodies against CD4, CD8, CD45RA, CD45RO, CD44, CD62L, CCR7, CD27, PD-1 and CD69. A fixable live/dead dye was used to distinguish between live or dead cells.
Splenocytes from C57BL/6 donor mice were activated with 1 μg mL^−1 anti-CD3, 1 μg mL-1 anti-CD28 in the presence of IL-2 and 200 pg mL-1 IL-7 for 1 day then ficoll gradient treatment. Cells were transduced in plates coated with 1 μg mL of retronectin using supernatant produced from a GP+86 LXSN-anti-Her2 CAR packaging cell line. The transduced cells were then expanded in complete RPMI with the same concentration of IL-2 and IL-7 with or without 5 μM of PTX-200. Fresh IL-2 and IL-7 in complete media were added to all CAR-T-cells 2 days post-transduction.

murine T-cells = conditions: extremely low concentrations
Excerpt: as §1, §2

human CAR-T-cells [3] = test: Flow cytometry phenotyping of human CAR-T-cells from PBMC donors; assay type: cell-based
Experimental: Human PBMCs were extracted from buffy packs (Australian Red Cross Blood Service). They were activated using anti-CD3 antibody (OKT3) for 2 days before transduction for 48 hours, all in the presence of IL-2.
Buffy coats from three donors were processed to isolate PBMCs, where 50 million PBMCs were cultured for 2 days in the presence of media containing anti-CD3 antibodies (OKT3, 1.5 μg per mL) and recombinant IL-2 (600 U/mL). […] Samples were collected either 24 or 72 hours later.

Compound: CN1N=C(N)c2cn([C@@H]3O[C@H](COP(=O)(O)O)[C@@H](O)[C@H]3O)c3ncnc1c23 [TCN-P, triciribine 5′-monophosphate]
- tumour control / tumour killing, tumour sizes until day 14 (MC-38-hHer2; 25 mg/kg TCN-P adjuvant every 3 days following Her2-targeting CAR-T administration): significantly improved
- median survival duration (MC-38-hHer2; TCN-P 25 mg/Kg, 20×10^6 CAR-T-cells, control group 15 days): 20 days
- anti-tumour effect (tumour growth) (MC-38-hHer2; TCN-P alone, 5, 25 or 50 mg/Kg i.p. every 3-4 days): dosage dependent anti-tumour effect; also recorded: strong anti-tumour effect
- enrichment of proteins associated with interferon signalling and anti-viral activity (human CAR-T-cells [1]): increased enrichment
- proteins associated with metabolism and RNA processing (human CAR-T-cells [1]): enriched
- reduction of intratumoral Tregs [2]: 50%
- ratio of CD4:CD8 T-cells (murine CAR-T-cells; TCN-P conditioning during CAR-T manufacturing, prior to administration): unchanged
- central memory CD8+ CAR-T-cells (CD44+ CD62L+) (murine CAR-T-cells; TCN-P preconditioning during CAR-T manufacturing): significant enrichment
- tolerability by transduced T-cells (murine T-cells): well-tolerated
- effector T (TE) cells in CD8+ CAR-T-cells (human CAR-T-cells [3]; 24 hrs, n=3 donors, control/vehicle 8%): 5%
- Central memory T (TCM) cells (CD45RO+ CD62L+) in CD8+ CAR-T-cells, mean (human CAR-T-cells [3]; 24 hrs, n=3 donors, control/vehicle 11%): 17%
- Central memory T (TCM) cells (CD45RO+ CD62L+) in CD8+ CAR-T-cells (human CAR-T-cells [3]; 3 days, after 24 hour treatment, n=3, control/vehicle 9%): 16%
- effector T (TE) cells in CD8+ CAR-T-cells (human CAR-T-cells [3]; 3 days, after 24 hour treatment, n=3, control/vehicle 35%): 23%
- CCR7+ TCM, mean (human CAR-T-cells [3]; CD8+ CAR-T, pre-treatment, from 9%): 16%
- CCR7+ TE (human CAR-T-cells [3]; CD8+ CAR-T, pre-treatment, from 35%): 23%
- TCM or TE phenotype of CD4+ CAR-T-cells (human CAR-T-cells [3]; pre-treatment, 24 hrs and 3 days): did not have any effect
- TREG proportions (CD4+CD25+FoxP3+) in CD4+ transduced CAR-T-cells (human CAR-T-cells [3]; pre-treatment, low concentrations): reduced
